From the NIST ThermoML archive (doi:10.1021/acs.jced.6b00542)
± gives the expanded uncertainty stated by the source.

Experiment: xn = mol fraction of the nth substance listed
Conditions: for speed of sound: 100 kPa, Frequency=3 MHz, Sing-around technique in a fixed-path interferometer; for speed of sound / viscosity / mass density: Liquid; for viscosity / mass density: 102 kPa; for viscosity: Concentric cylinders viscometry; for mass density: Vibrating tube method; for surface tension liquid-gas: 294.5 K, Pendant drop shape

Compound: CCCCc1ccccc1 [butylbenzene] + CCCCCCCCCCCCCCCC
- speed of sound (293.15 K, x1 = 0.1586): 1353.2 ± 1 m/s
- speed of sound (293.15 K, x1 = 0.2971): 1350.1 ± 1 m/s
- speed of sound (293.15 K, x1 = 0.4067): 1347.8 ± 1 m/s
- speed of sound (293.15 K, x1 = 0.5293): 1346 ± 0.9 m/s
- speed of sound (293.15 K, x1 = 0.6278): 1345 ± 0.9 m/s
- speed of sound (293.15 K, x1 = 0.7158): 1345.1 ± 0.9 m/s
- speed of sound (293.15 K, x1 = 0.7981): 1346.3 ± 0.9 m/s
- speed of sound (293.15 K, x1 = 0.8709): 1347.8 ± 0.9 m/s
- speed of sound (293.15 K, x1 = 0.938): 1350.4 ± 0.9 m/s
- speed of sound (293.15 K, x1 = 1): 1353.7 ± 0.9 m/s
- viscosity (293.15 K, x1 = 0.1586): 2.92 ± 0.02 mPa·s
- viscosity (293.15 K, x1 = 0.2971): 2.5 ± 0.01 mPa·s
- viscosity (293.15 K, x1 = 0.4067): 2.21 ± 0.01 mPa·s
- viscosity (293.15 K, x1 = 0.5293): 1.91 ± 0.01 mPa·s
- viscosity (293.15 K, x1 = 0.6278): 1.69 ± 0.01 mPa·s
- viscosity (293.15 K, x1 = 0.7158): 1.52 ± 0.01 mPa·s
- viscosity (293.15 K, x1 = 0.7981): 1.36 ± 0.01 mPa·s
- viscosity (293.15 K, x1 = 0.8709): 1.23 ± 0.01 mPa·s
- viscosity (293.15 K, x1 = 0.938): 1.12 ± 0.01 mPa·s
- viscosity (293.15 K, x1 = 1): 1.05 ± 0.01 mPa·s
- mass density (293.15 K, x1 = 0.1586): 780.89 ± 0.15 kg/m3
- mass density (293.15 K, x1 = 0.2971): 788.51 ± 0.15 kg/m3
- mass density (293.15 K, x1 = 0.4067): 795.49 ± 0.14 kg/m3
- mass density (293.15 K, x1 = 0.5293): 804.56 ± 0.13 kg/m3
- mass density (293.15 K, x1 = 0.6278): 813.07 ± 0.13 kg/m3
- mass density (293.15 K, x1 = 0.7158): 821.75 ± 0.12 kg/m3
- mass density (293.15 K, x1 = 0.7981): 831.1 ± 0.12 kg/m3
- mass density (293.15 K, x1 = 0.8709): 840.48 ± 0.12 kg/m3
- mass density (293.15 K, x1 = 0.938): 850.32 ± 0.11 kg/m3
- mass density (293.15 K, x1 = 1): 860.51 ± 0.11 kg/m3
- surface tension liquid-gas (x1 = 0.1586): 27.5 ± 0.4 mN/m
- surface tension liquid-gas (x1 = 0.2971): 27.3 ± 0.4 mN/m
- surface tension liquid-gas (x1 = 0.4067): 27.6 ± 0.4 mN/m
- surface tension liquid-gas (x1 = 0.5293): 27.8 ± 0.4 mN/m
- surface tension liquid-gas (x1 = 0.6278): 27.9 ± 0.4 mN/m
- surface tension liquid-gas (x1 = 0.7158): 28 ± 0.4 mN/m
- surface tension liquid-gas (x1 = 0.7981): 28.2 ± 0.4 mN/m
- surface tension liquid-gas (x1 = 0.8709): 28.4 ± 0.4 mN/m
- surface tension liquid-gas (x1 = 0.938): 28.7 ± 0.4 mN/m
- speed of sound (303.15 K, x1 = 0.1586): 1316.1 ± 1 m/s
- speed of sound (303.15 K, x1 = 0.2971): 1313 ± 1 m/s
- speed of sound (303.15 K, x1 = 0.4067): 1310.7 ± 0.9 m/s
- speed of sound (303.15 K, x1 = 0.5293): 1308.8 ± 0.9 m/s
- speed of sound (303.15 K, x1 = 0.6278): 1307.7 ± 0.9 m/s
- speed of sound (303.15 K, x1 = 0.7158): 1307.6 ± 0.9 m/s
- speed of sound (303.15 K, x1 = 0.7981): 1308.5 ± 0.9 m/s
- speed of sound (303.15 K, x1 = 0.8709): 1309.7 ± 0.9 m/s
- speed of sound (303.15 K, x1 = 0.938): 1312 ± 0.9 m/s
- speed of sound (303.15 K, x1 = 1): 1314.9 ± 0.9 m/s
- viscosity (303.15 K, x1 = 0.1586): 2.35 ± 0.01 mPa·s
- viscosity (303.15 K, x1 = 0.2971): 2.05 ± 0.01 mPa·s
- viscosity (303.15 K, x1 = 0.4067): 1.83 ± 0.01 mPa·s
- viscosity (303.15 K, x1 = 0.5293): 1.6 ± 0.01 mPa·s
- viscosity (303.15 K, x1 = 0.6278): 1.43 ± 0.01 mPa·s
- viscosity (303.15 K, x1 = 0.7158): 1.29 ± 0.01 mPa·s
- viscosity (303.15 K, x1 = 0.7981): 1.17 ± 0.01 mPa·s
- viscosity (303.15 K, x1 = 0.8709): 1.06 ± 0.01 mPa·s
- viscosity (303.15 K, x1 = 0.938): 0.976 ± 0.007 mPa·s
- viscosity (303.15 K, x1 = 1): 0.91 ± 0.007 mPa·s
- mass density (303.15 K, x1 = 0.1586): 773.89 ± 0.16 kg/m3
- mass density (303.15 K, x1 = 0.2971): 781.43 ± 0.15 kg/m3
- mass density (303.15 K, x1 = 0.4067): 788.33 ± 0.14 kg/m3
- mass density (303.15 K, x1 = 0.5293): 797.29 ± 0.14 kg/m3
- mass density (303.15 K, x1 = 0.6278): 805.7 ± 0.13 kg/m3
- mass density (303.15 K, x1 = 0.7158): 814.27 ± 0.13 kg/m3
- mass density (303.15 K, x1 = 0.7981): 823.49 ± 0.12 kg/m3
- mass density (303.15 K, x1 = 0.8709): 832.73 ± 0.12 kg/m3
- mass density (303.15 K, x1 = 0.938): 842.44 ± 0.12 kg/m3
- mass density (303.15 K, x1 = 1): 852.49 ± 0.11 kg/m3
- speed of sound (313.15 K, x1 = 0.1586): 1279.5 ± 1 m/s
- speed of sound (313.15 K, x1 = 0.2971): 1276.4 ± 1 m/s
- speed of sound (313.15 K, x1 = 0.4067): 1274.1 ± 0.9 m/s
- speed of sound (313.15 K, x1 = 0.5293): 1272.1 ± 0.9 m/s
- speed of sound (313.15 K, x1 = 0.6278): 1270.8 ± 0.9 m/s
- speed of sound (313.15 K, x1 = 0.7158): 1270.5 ± 0.9 m/s
- speed of sound (313.15 K, x1 = 0.7981): 1271.1 ± 0.9 m/s
- speed of sound (313.15 K, x1 = 0.8709): 1272.1 ± 0.9 m/s
- speed of sound (313.15 K, x1 = 0.938): 1274 ± 0.9 m/s
- speed of sound (313.15 K, x1 = 1): 1276.6 ± 0.9 m/s
- viscosity (313.15 K, x1 = 0.1586): 1.94 ± 0.01 mPa·s
- viscosity (313.15 K, x1 = 0.2971): 1.71 ± 0.01 mPa·s
- viscosity (313.15 K, x1 = 0.4067): 1.54 ± 0.01 mPa·s
- viscosity (313.15 K, x1 = 0.5293): 1.36 ± 0.01 mPa·s
- viscosity (313.15 K, x1 = 0.6278): 1.23 ± 0.01 mPa·s
- viscosity (313.15 K, x1 = 0.7158): 1.11 ± 0.01 mPa·s
- viscosity (313.15 K, x1 = 0.7981): 1.01 ± 0.01 mPa·s
- viscosity (313.15 K, x1 = 0.8709): 0.932 ± 0.007 mPa·s
- viscosity (313.15 K, x1 = 0.938): 0.859 ± 0.007 mPa·s
- viscosity (313.15 K, x1 = 1): 0.801 ± 0.006 mPa·s
- mass density (313.15 K, x1 = 0.1586): 766.88 ± 0.16 kg/m3
- mass density (313.15 K, x1 = 0.2971): 774.34 ± 0.15 kg/m3
- mass density (313.15 K, x1 = 0.4067): 781.16 ± 0.14 kg/m3
- mass density (313.15 K, x1 = 0.5293): 790 ± 0.14 kg/m3
- mass density (313.15 K, x1 = 0.6278): 798.3 ± 0.13 kg/m3
- mass density (313.15 K, x1 = 0.7158): 806.75 ± 0.13 kg/m3
- mass density (313.15 K, x1 = 0.7981): 815.84 ± 0.12 kg/m3
- mass density (313.15 K, x1 = 0.8709): 824.96 ± 0.12 kg/m3
- mass density (313.15 K, x1 = 0.938): 834.53 ± 0.12 kg/m3
- mass density (313.15 K, x1 = 1): 844.43 ± 0.11 kg/m3
- speed of sound (323.15 K, x1 = 0.1586): 1243.6 ± 1 m/s
- speed of sound (323.15 K, x1 = 0.2971): 1240.4 ± 1 m/s
- speed of sound (323.15 K, x1 = 0.4067): 1238 ± 0.9 m/s
- speed of sound (323.15 K, x1 = 0.5293): 1235.9 ± 0.9 m/s
- speed of sound (323.15 K, x1 = 0.6278): 1234.4 ± 0.9 m/s
- speed of sound (323.15 K, x1 = 0.7158): 1233.9 ± 0.9 m/s
- speed of sound (323.15 K, x1 = 0.7981): 1234.3 ± 0.9 m/s
- speed of sound (323.15 K, x1 = 0.8709): 1235 ± 0.9 m/s
- speed of sound (323.15 K, x1 = 0.938): 1236.6 ± 0.8 m/s
- speed of sound (323.15 K, x1 = 1): 1238.7 ± 0.8 m/s
- viscosity (323.15 K, x1 = 0.1586): 1.62 ± 0.01 mPa·s
- viscosity (323.15 K, x1 = 0.2971): 1.44 ± 0.01 mPa·s
- viscosity (323.15 K, x1 = 0.4067): 1.31 ± 0.01 mPa·s
- viscosity (323.15 K, x1 = 0.5293): 1.17 ± 0.01 mPa·s
- viscosity (323.15 K, x1 = 0.6278): 1.06 ± 0.01 mPa·s
- viscosity (323.15 K, x1 = 0.7158): 0.972 ± 0.007 mPa·s
- viscosity (323.15 K, x1 = 0.7981): 0.891 ± 0.007 mPa·s
- viscosity (323.15 K, x1 = 0.8709): 0.822 ± 0.006 mPa·s
- viscosity (323.15 K, x1 = 0.938): 0.761 ± 0.006 mPa·s
- viscosity (323.15 K, x1 = 1): 0.713 ± 0.006 mPa·s
